# Assay results: patent EP1043979B1, “COMPOSITIONS FOR THE TRANSDERMAL AND DERMAL ADMINISTRATION OF BIOLOGICALLY ACTIVE AGENTS” (PULITZER ITALIANA S.r.l., priority 1997, dated 1999)
# Assay: In vitro transdermal flux of nitroglycerin from TTS patches, Franz diffusion cells, HPLC of receiving medium
# Assay type: in vitro ADME, human
# Source text: The transdermal delivery devices employed in this example and in the following ones were produced according to the following procedure. A matrix layer containing the active substance, the adhesive and, when present, the permeation enhancer and the absorption assistant was obtained by uniformly spreading a solution of the components, with the proper concentration, viscosity and quantitative composition, on the silanised or fluorinated surface of a polyester protective layer. After evaporating the solvent at 70-80°C for 15-20 min. a final layer of a homogeneous thickness was obtained. weighing about 10 mg/cm^2 and having the desired composition. The composition had been preliminarily fixed taking into account the amount of solvent to be removed. During the above operation the adhesive employed underwent the required cross-linking reaction. […]
# On the transdermal devices thus produced in vitro release tests were carried out, employing methods well known to this aim (Merrit e. Cooper, J. Controlled Release, 1984, 1, 161), that have been further developed more recently (Reifenrath et al., J. Pharm. Sci., 80, 1991, 526). […] The tested patches were applied to the exposed side of the skin, and the transdermal flux was measured by analysing (by HPLC) the receiving medium. […]
Compound,"activity as enhancer (N-(2-hydroxyethyl)acetamide alone, 3-7% in nitroglycerin TTS (Table 2))",transdermal permeation
CC(=O)NCCO [N-(2-hydroxyethyl)acetamide],does not possess any significant activity as enhancer,–
sorbitan monooleate,–,relative reduction of the transdermal permeation
